Columns and labels:
[1] = mn = molality of the nth substance listed, in mol/kg; conditions: 298.15 K, 101 kPa, Liquid
[2] = osmotic coefficient (dimensionless); mn = molality of the nth substance listed, in mol/kg; conditions: 298.15 K, Liquid, Vapor Pressure Osmometer (Knaur K-7000)

CCCCNc1ccc(C(=O)OCCN(C)C)cc1.Cl + O
Conditions | mass density, [1] [kg/m3] | osmotic coefficient, [2]
m1 = 0.01696 | 997.722 | 0.896
m1 = 0.0205 | 997.869 | 0.884
m1 = 0.02526 | 998.076 | 0.871
m1 = 0.0301 | 998.265 | 0.858
m1 = 0.03454 | 998.444 | 0.848
m1 = 0.03897 | 998.614 | 0.839
m1 = 0.04254 | 998.764 | 0.832
m1 = 0.04793 | 998.98 | 0.822
m1 = 0.05807 | 999.405 | 0.805
m1 = 0.06741 | 999.767 | 0.79
m1 = 0.07521 | 1000.07 | 0.778
m1 = 0.08589 | 1000.49 | 0.762
m1 = 0.09567 | 1000.88 | 0.747
m1 = 0.1161 | 1001.66 | 0.716
m1 = 0.1436 | 1002.67 | 0.672
m1 = 0.1726 | 1003.78 | 0.622
m1 = 0.1924 | 1004.46 | 0.587
m1 = 0.2427 | 1006.27 | 0.498
m1 = 0.3009 | 1008.22 | 0.411
m1 = 0.3479 | 1009.67 | 0.367
m1 = 0.4005 | 1011.44 | 0.363

CCN(CC)CCOC(=O)c1ccc(N)cc1.Cl [2-diethylaminoethyl p-aminobenzoate hydrochloride] + O
Conditions | mass density, [1] [kg/m3] | osmotic coefficient, [2]
m1 = 0.0158 | 997.809 | 0.885
m1 = 0.01893 | 997.979 | 0.873
m1 = 0.02475 | 998.219 | 0.856
m1 = 0.03023 | 998.477 | 0.843
m1 = 0.03265 | 998.609 | 0.838
m1 = 0.03891 | 998.872 | 0.827
m1 = 0.04358 | 999.105 | 0.82
m1 = 0.04823 | 999.338 | 0.814
m1 = 0.05787 | 999.774 | 0.804
m1 = 0.0712 | 1000.37 | 0.794
m1 = 0.09584 | 1001.52 | 0.781
m1 = 0.1165 | 1002.46 | 0.772
m1 = 0.1438 | 1003.64 | 0.759
m1 = 0.1749 | 1005.05 | 0.741
m1 = 0.1973 | 1005.94 | 0.727
m1 = 0.2187 | 1007.01 | 0.713
m1 = 0.2457 | 1008.14 | 0.694
m1 = 0.2791 | 1009.54 | 0.673
m1 = 0.2997 | 1010.41 | 0.661
m1 = 0.3205 | 1011.32 | 0.65
m1 = 0.3523 | 1012.67 | 0.636
m1 = 0.4061 | 1014.95 | 0.62
m1 = 0.4613 | 1016.97 | 0.609
m1 = 0.517 | 1019.21 | 0.587

CCN(CC)CC(=O)Nc1c(C)cccc1C.Cl [lidocaine hydrochloride] + O
Conditions | mass density, [1] [kg/m3] | osmotic coefficient, [2]
m1 = 0.01004 | 997.37 | 0.879
m1 = 0.02018 | 997.713 | 0.83
m1 = 0.02958 | 998.034 | 0.807
m1 = 0.03474 | 998.184 | 0.8
m1 = 0.03911 | 998.35 | 0.796
m1 = 0.04409 | 998.51 | 0.793
m1 = 0.04809 | 998.641 | 0.792
m1 = 0.05588 | 998.887 | 0.792
m1 = 0.07017 | 999.384 | 0.796
m1 = 0.09322 | 1000.14 | 0.805
m1 = 0.1151 | 1000.85 | 0.812
m1 = 0.141 | 1001.69 | 0.813
m1 = 0.1712 | 1002.65 | 0.805
m1 = 0.188 | 1003.15 | 0.797
m1 = 0.2082 | 1003.81 | 0.785
m1 = 0.2386 | 1004.84 | 0.765
m1 = 0.2675 | 1005.71 | 0.748
m1 = 0.2906 | 1006.37 | 0.736
m1 = 0.3089 | 1006.95 | 0.728
m1 = 0.3399 | 1007.94 | 0.72
m1 = 0.3919 | 1009.45 | 0.718
m1 = 0.4432 | 1011.03 | 0.72
m1 = 0.4982 | 1012.71 | 0.696

— the NIST ThermoML archive (doi:10.1021/je3006985)
